Patent publication US8889591B2, “Herbicidal compositions comprising 4-amino-3-chloro-5-fluoro-6-(4-chloro-2-fluoro-3-methoxyphenyl)pyridine-2-carboxylic acid or a derivative thereof and bromobutide, daimuron, oxaziclomefone or pyributicarb” (Dow Agrosciences LLC, priority 2012, dated 2014)

How the values were obtained:
[1] = system: CYPIR; assay: Postemergence foliar-applied greenhouse weed control, direct-seeded rice system; type: in vivo, Cyperus iria L.
Text: Seeds or nutlets of the desired test plant species were planted in a soil matrix prepared by mixing a loam or sandy loam soil (e.g., 28.6 percent silt, 18.8 percent clay, and 52.6 percent sand, with a pH of about 5.8 and an organic matter content of about 1.8 percent) and calcareous grit in an 80 to 20 ratio. The soil matrix was contained in plastic pots with a volume of 1 quart and a surface area of 83.6 square centimeters (cm^2). When required to ensure good germination and healthy plants, a fungicide treatment and/or other chemical or physical treatment was applied. The plants were grown for 8-22 days in a greenhouse with an approximate 14 h photoperiod which was maintained at about 29° C. during the day and 26° C. during the night. Nutrients (Peters Excel® 15-5-15 5-Ca 2-Mg and iron chelate) were applied in the irrigation solution as needed and water was added on a regular basis. Supplemental lighting was provided with overhead metal halide 1000-Watt lamps as necessary. The plants were employed for testing when they reached the first through fourth true leaf stage. […]
Treatment requirements were calculated based upon the rates being tested, the concentration of active ingredient or acid equivalent in the formulation, and a 12 mL application volume at a rate of 187 L/ha.
For treatments comprised of formulated compounds, measured amounts of compounds were placed individually in 25 mL glass vials and diluted in a volume of 1.25% (v/v) Agri-Dex® crop oil concentrated to obtain 12× stock solutions. […]
For treatments comprised of formulated and technical compounds, weighed amounts of the technical materials were placed individually in 25 mL glass vials and dissolved in a volume of 97:3 v/v acetone/DMSO to obtain 12× stock solutions, and measured amounts of the formulated compounds were placed individually in 25 mL glass vials and diluted in a volume of 1.5% (v/v) crop oil concentrate or water to obtain 12× stock solutions. […]

[2] = system: CYPRO; assay: In-water applied greenhouse weed control, transplanted paddy rice system; type: in vivo, Cyperus rotundus L.; settings: in-water application
Experimental: Weed seeds or nutlets of the desired test plant species were planted in puddled soil (mud) prepared by mixing a shredded, non-sterilized mineral soil (50.5 percent silt, 25.5 percent clay, and 24 percent sand, with a pH of about 7.6 and an organic matter content of about 2.9 percent) and water at a 1:1 volumetric ratio. The prepared mud was dispensed in 365 mL aliquots into 16-ounce (oz.) non-perforated plastic pots with a surface area of 86.59 square centimeters (cm^2) leaving a headspace of 3 centimeters (cm) in each pot. Mud was allowed to dry overnight prior to planting or transplanting. Rice seeds were planted in Sun Gro MetroMix® 306 planting mixture, which typically has a pH of 6.0 to 6.8 and an organic matter content of about 30 percent, in plastic plug trays. Seedlings at the second or third leaf stage of growth were transplanted into 840 mL of mud contained in 32-oz. non-perforated plastic pots with a surface area of 86.59 cm^2 4 days prior to herbicide application. The paddy was created by filling the headspace of the pots with 2.5 to 3 cm of water. When required to ensure good germination and healthy plants, a fungicide treatment and/or other chemical or physical treatment was applied. The plants were grown for 4-22 days in a greenhouse with an approximate 14 h photoperiod which was maintained at about 29° C. during the day and 26° C. during the night. Nutrients were added as Osmocote® (19:6:12, N:P:K+ minor nutrients) at 2 g per 16-oz. pot and 4 g per 32-oz. pot. Water was added on a regular basis to maintain the paddy flood, and supplemental lighting was provided with overhead metal halide 1000-Watt lamps as necessary. The plants were employed for testing when they reached the first through fourth true leaf stage.
Treatments consisted of the acid or esters of 4-amino-3-chloro-5-fluoro-6-(4-chloro-2-fluoro-3-methoxy-phenyl)pyridine-2-carboxylic acid (compound A) each formulated as an SC and various herbicidal components alone and in combination. Forms of compound A were applied on an acid equivalent basis.
Other herbicidal components were applied on an active ingredient basis and included daimuron formulated as an EC, bromobutide (technical grade material), and oxaziclomefone (technical grade material).
Treatment requirements for each compound or herbicidal component were calculated based upon the rates being tested, the concentration of active ingredient or acid equivalent in the formulation, an application volume of 2 mL per component per pot, and an application area of 86.59 cm^2 per pot.
For formulated compounds, a measured amount was placed in an individual 100 or 200 mL glass vial and was dissolved in a volume of 1.25% (v/v) Agri-Dex® crop oil concentrate to obtain application solutions.
For technical grade compounds, a weighed amount was placed in an individual 100 to 200 mL glass vial and was dissolved in a volume of acetone to obtain concentrated stock solutions. […] The concentrated stock solutions obtained were diluted with an equivalent volume of an aqueous mixture containing 2.5% (v/v) crop oil concentrate so that the final application solutions contained 1.25% (v/v) crop oil concentrate.
Applications were made by injecting, with a pipetter, appropriate amounts of the application solutions, individually and sequentially, into the aqueous layer of the paddy. Control plants were treated in the same manner with the solvent blank. Applications were made so that all treated plant material received the same concentrations of acetone and crop oil concentrate.
The treated plants and control plants were placed in a greenhouse as described above and water was added as needed to maintain a paddy flood. After approximately 3 weeks the condition of the test plants as compared with that of the untreated plants was determined visually and scored on a scale of 0 to 100 percent where 0 corresponds to no injury or growth inhibition and 100 corresponds to complete kill. […]

[3] = Compound A Benzyl Ester 8.75 gae/ha alone

SMILES: COc1c(Cl)ccc(-c2nc(C(=O)OCc3ccccc3)c(Cl)c(N)c2F)c1F [Compound A Benzyl Ester]
- Visual Weed Control (%) - 22 DAA CYPIR Obs ([1]; Compound A Benzyl Ester 4.38 gae/ha alone): 25%
- Visual Weed Control (%) - 22 DAA CYPIR Obs [1, 3]: 50%
- Visual Weed Control (%) - 19 DAA CYPRO Obs ([2]; Compound A Benzyl Ester 8 gae/ha alone): 50%
- Visual Weed Control (%) - 21 DAA CYPRO Obs [2, 3]: 60%
- Visual Weed Control (%) - 19 DAA CYPRO Obs ([2]; Compound A Benzyl Ester 16 gae/ha alone): 85%
- Visual Weed Control (%) - 19 DAA CYPRO Obs ([2]; Compound A Benzyl Ester 32 gae/ha alone): 90%
